Test results: patent US5238832A, “Aryl aliphatic acids” (Board of Governors of Wayne State University, priority 1992, dated 1993)

Molecular target: T1, 12-lipoxygenase (Sus scrofa, UniProt P16469)
T1 construct: porcine leukocyte cytosol containing 12-lipoxygenase; from tissue; host or cells: porcine leukocyte cytosol
T1 sequence (P16469 1-663): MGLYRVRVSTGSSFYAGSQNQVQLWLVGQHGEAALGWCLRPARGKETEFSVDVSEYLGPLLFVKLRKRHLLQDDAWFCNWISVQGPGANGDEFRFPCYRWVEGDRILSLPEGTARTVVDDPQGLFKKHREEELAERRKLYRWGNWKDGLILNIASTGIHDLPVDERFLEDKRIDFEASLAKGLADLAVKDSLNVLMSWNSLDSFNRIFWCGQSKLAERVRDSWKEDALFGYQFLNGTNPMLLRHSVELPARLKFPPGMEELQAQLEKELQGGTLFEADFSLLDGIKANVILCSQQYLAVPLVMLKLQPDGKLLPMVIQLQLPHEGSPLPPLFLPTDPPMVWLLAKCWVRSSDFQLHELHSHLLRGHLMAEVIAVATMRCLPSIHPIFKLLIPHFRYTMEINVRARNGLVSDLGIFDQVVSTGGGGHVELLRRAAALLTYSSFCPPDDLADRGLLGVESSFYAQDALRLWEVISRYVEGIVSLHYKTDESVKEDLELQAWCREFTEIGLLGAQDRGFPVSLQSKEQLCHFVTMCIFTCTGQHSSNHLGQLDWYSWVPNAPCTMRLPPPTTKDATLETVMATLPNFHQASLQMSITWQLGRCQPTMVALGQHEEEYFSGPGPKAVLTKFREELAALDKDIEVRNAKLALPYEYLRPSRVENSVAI
Test: Inhibition of 12-lipoxygenase activity by aryl aliphatic acids (porcine leukocyte cytosol, conversion of [1-14C] arachidonic acid to 12-HETE)
Assay type: biochemical
Conditions: porcine leukocyte cytosol 0.075 mg/ml protein; 0.1 M HEPES, pH 8.0; 5 min preincubation, 15 min at 37° C.; arachidonic acid given as 5 mM
Experimental: The standard assay procedure is as follows: […] [1^-14 C] Arachidonic acid was added (final concentration of […]) and the reactions were incubated for 15 minutes at 37° C. and terminated by the addition of HCl. […] Samples were extracted with water-saturated ethyl acetate and the extracts were spotted onto TLC plates. The plates were developed with dichloromethane/ethyl acetate/acetic acid in a ratio of 70:30:1. […] The percentage conversion to 12-HETE was calculated from the percentage of the total ^14 C on the TLC plate that coelutes with a standard of 12-HETE.

CCCCCCCCC#CCOCc1ccc(CCC(=O)O)cc1 [Compound 26, 3-[4-(2-Undecynyloxymethyl)phenyl]propanoic Acid]
IC50: 100 nM

CCCCCCCCCCC=C=CCOCc1ccc(CCC(=O)O)cc1 [Compound 34, (S)-(+)-3-[4-(2,3-Tetradecadienyloxymethyl)phenyl]propanoic Acid]
IC50: 280 nM

CCCCCCCCCCCCC#CCOCc1ccc(CCC(=O)O)cc1 [Compound 27, 3-[4-(2-Pentadecynyloxymethyl)phenyl]propanoic Acid]
IC50: 320 nM

CCCCCCCCCC/C=C\COCc1ccc(CCC(=O)O)cc1 [Compound 31, cis-3-[4-(2-Tridecenyloxymethyl)-phenyl]propanoic Acid]
IC50: 1000 nM

CCCCCCCCCCC#CCOCc1ccc(CCC(=O)O)cc1 [Compound 24, 3-[4-(2-Tridecynyloxymethyl)phenyl]propanoic Acid]
IC50: 35 nM

CCCCCCCCCC/C=C/COCc1ccc(CCC(=O)O)cc1 [Compound 32, trans-3-[4-(2-Tridecenyloxymethyl)phenyl]propanoic Acid]
IC50: 400 nM

CCCCCCCCCCc1ccc(COCc2ccc(CCC(=O)O)cc2)cc1 [Compound 30, 3-[4-[4-(Decylphenylmethyl)oxymethyl]phenyl]propanoic Acid]
IC50: 5000 nM

CCCCCCCCCCC=C=CCOCc1ccc(CCC(=O)O)cc1 [Compound 35, (R)-3-[4-(2,3-Tetradecadienyloxymethyl)]
IC50: 450 nM

CCCCCCC#CCOCc1ccc(CCC(=O)O)cc1 [Compound 25, 3-[4-(2-Nonynyloxymethyl)phenyl]propanoic Acid]
IC50: 2000 nM
